The values below come from BindingDB's records for patent US20250382308 (Nuevolution, 2025).

A value given as a limit tells only on which side of the number the result lay.

The target in experiment [1] is T1, Bromodomain-containing protein 4 [58-164] (Homo sapiens, UniProt O60885).
T1 construct: 58-164
The experiment in a line: Bromodomain Assay. The protocol:
(§1) The liganded beads were blocked with excess biotin and washed with blocking buffer (SeaBlock (Pierce), 1% BSA (bovine serum albumin), 0.05% Tween 20, 1 mM DTT (dithiothreitol)) to remove unbound ligand and to reduce non-specific phage binding. […] Test compounds were prepared as 1000× stocks in 100% DMSO and subsequently diluted 1:10 in monoethylene glycol (MEG) to create stocks at 100× the screening concentration (resulting stock solution is 10% DMSO/90% MEG). The compounds were then diluted directly into the assays such that the final concentration of DMSO and MEG were 0.1% and 0.9%, respectively. All reactions were performed in polystyrene 96-well plates in a final volume of 0.135 ml. […] The bromodomain concentration in the eluates was measured by qPCR (quantitative real-time polymerase chain reaction).

Experiment [2] addresses T2, Bromodomain-containing protein 4 [353-454] (Homo sapiens, UniProt O60885).
T2 construct: 353-454
Nature of the experiment: Bromodomain Assay. Here is the method: as §1

Experiment [3] addresses cGMP-inhibited 3',5'-cyclic phosphodiesterase 3A (Homo sapiens, UniProt Q14432). The experiment in a line: Radiometric PDE3A Assay. Here is the method: Partially purified human recombinant phosphodiesterase (PDE3A) was obtained by cloning cDNA and expressing in S. frugiperda insect cells using a baculovirus expression system. Cells were harvested from culture by centrifuging at 400×g for 5 minutes. Cell pellet was resuspended in 20 ml of RIPA Buffer (150 mM NaCl, 10 mM Tris, 0.1% NP-40, pH8.3), 4 ml/200 ml of culture, plus protease inhibitors (100 μl/10 ml) and incubated on ice for 10-20 minutes then spun at 3500×g for 10 minutes at 4° C. Supernatant was kept and the pellet thrown away. Tritium-labeled cyclic AMP was hydrolysed to 5′-AMP by PDE3A. The 5′-AMP was then further hydrolysed to adenosine by nucleotidase in snake venom. An anion-exchange resin binds all charged nucleotides and leaves [3H]adenosine as the only labeled compound to be counted by liquid scintillation. The radiometric assay method is a modification of the two-step method of Thompson and Appleman [Biochemistry 10; 311-316; 1971], adapted for a 96 well plate format. 50 μl of diluted PDE3A was incubated with 50 μl of [3H]-CAMP (specific activity 25 Ci/mmol) and 11 μl of 50% DMSO (or compound dilution) for 20 minutes at 30° C. […] 50 μl of supernatant was removed and added to 200 μl of MicroScint-20 in white plates (Greiner 96-well Optiplate) and shaken for 30 minutes before reading on Perkin Elmer TopCount Scintillation Counter.

As usually defined, the Kd is the constant that tells how readily two partners part at equilibrium. What is called IC50 is the midpoint of a concentration-inhibition curve. A higher IC50 goes with weaker potency.

Chain of cGMP-inhibited 3',5'-cyclic phosphodiesterase 3A (Q14432 whole entry): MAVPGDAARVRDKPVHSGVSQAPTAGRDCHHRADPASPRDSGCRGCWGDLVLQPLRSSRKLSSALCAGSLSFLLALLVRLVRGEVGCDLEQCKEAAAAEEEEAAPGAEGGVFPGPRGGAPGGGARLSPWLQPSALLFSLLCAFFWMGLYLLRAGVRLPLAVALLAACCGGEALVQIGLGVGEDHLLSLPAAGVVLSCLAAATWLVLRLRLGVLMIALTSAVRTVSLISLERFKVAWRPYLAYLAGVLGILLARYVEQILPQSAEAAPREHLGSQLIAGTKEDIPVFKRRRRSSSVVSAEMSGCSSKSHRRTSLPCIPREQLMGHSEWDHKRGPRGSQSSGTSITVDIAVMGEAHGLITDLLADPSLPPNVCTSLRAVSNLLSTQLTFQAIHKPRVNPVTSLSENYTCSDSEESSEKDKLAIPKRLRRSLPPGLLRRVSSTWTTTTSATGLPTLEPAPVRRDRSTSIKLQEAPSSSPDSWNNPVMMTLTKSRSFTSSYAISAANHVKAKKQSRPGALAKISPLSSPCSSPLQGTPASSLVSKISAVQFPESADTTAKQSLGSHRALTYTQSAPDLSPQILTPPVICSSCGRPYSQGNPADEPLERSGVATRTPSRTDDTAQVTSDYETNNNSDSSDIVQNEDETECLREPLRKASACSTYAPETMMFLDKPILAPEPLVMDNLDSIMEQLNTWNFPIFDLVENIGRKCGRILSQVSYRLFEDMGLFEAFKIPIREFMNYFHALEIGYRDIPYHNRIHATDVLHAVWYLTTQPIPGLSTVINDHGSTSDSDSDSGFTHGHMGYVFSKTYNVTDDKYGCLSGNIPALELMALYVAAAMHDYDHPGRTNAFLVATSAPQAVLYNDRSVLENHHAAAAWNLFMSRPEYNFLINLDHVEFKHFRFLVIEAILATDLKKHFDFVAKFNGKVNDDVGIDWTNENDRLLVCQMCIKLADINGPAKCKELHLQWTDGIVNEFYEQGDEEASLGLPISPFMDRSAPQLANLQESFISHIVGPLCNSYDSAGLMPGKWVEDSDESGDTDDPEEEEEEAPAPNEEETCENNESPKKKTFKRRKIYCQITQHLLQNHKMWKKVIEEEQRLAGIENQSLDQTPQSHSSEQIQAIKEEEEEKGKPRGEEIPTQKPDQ

Regarding `COc1cc(NC(=O)c2cc3c(nc2N2CCC(F)(F)C2)COC3)cc2c(C)cc(=O)[nH]c12` [US20250382308, Example 16], the results for the Kd in experiment [1] and in experiment [2] were 21 nM and 900 nM, respectively.
In experiment [3], `CCN(CC)c1nc2c(cc1C(=O)Nc1cc(OC)c3[nH]c(=O)cc(C)c3c1)COC2` [US20250382308, Example 27] showed a concentration for half-maximal inhibition (IC50) of over 10000 nM. In addition, the Kd in experiment [1] came out at 25 nM; in experiment [2] it was 600 nM.
